{"source": "patent US20100144741A1", "about": "“ETHANOLAMINE DERIVATIVES USEFUL AS BACE INHIBITORS” (priority 2006, published 2010)", "target": "T1, Human BACE (Homo sapiens, UniProt P56817)", "T1 construct": "Recombinant BACE (extracellular domain, expressed in baculovirus and purified using standard methods); made in house", "T1 sequence (P56817 46-457 limits assumed)": "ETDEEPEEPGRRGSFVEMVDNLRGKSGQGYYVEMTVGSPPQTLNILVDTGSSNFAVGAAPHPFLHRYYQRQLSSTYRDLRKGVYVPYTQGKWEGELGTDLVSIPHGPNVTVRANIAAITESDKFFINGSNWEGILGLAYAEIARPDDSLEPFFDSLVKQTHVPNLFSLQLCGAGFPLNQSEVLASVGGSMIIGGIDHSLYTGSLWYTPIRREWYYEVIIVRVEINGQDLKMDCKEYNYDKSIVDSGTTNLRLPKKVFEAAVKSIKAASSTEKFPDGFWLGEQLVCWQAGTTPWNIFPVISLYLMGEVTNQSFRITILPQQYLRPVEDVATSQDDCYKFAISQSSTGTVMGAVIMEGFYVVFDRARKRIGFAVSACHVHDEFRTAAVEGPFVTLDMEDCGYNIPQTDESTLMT", "test": "Test 1: Inhibition of Human BACE", "assay_type": "biochemical", "details": "recombinant BACE extracellular domain, fluorescence-quenched APP-derived peptide substrate, acetate buffer pH 4.5", "protocol": "Test 1: Inhibition of Human BACE\nRecombinant BACE (extracellular domain, expressed in baculovirus and purified using standard methods) at 0.1-10 nM concentration is incubated with the test compound at various concentrations for 1 hour at room temperature in 10-100 mM acetate buffer, pH 4.5, containing 0.1% CHAPS. Synthetic fluorescence-quenched peptide substrate, derived from the sequence of APP and containing a suitable fluorophore-quencher pair is added to a final concentration of 1-5 μM and the increase in fluorescence is recorded at a suitable excitation/emission wavelength in a microplate spectro-fluorimeter for 5-30 minutes in 1-minute intervals. IC50 values are calculated from percentage of inhibition of BACE-activity as a function of the test compound concentration.", "data": [{"smiles": "CC(=O)N[C@@H](Cc1ccc(Nc2cc(-c3ccccc3)ncn2)cc1)[C@H](O)CNC1(c2cccc(C(C)C)c2)CC1", "note": "[Example 2, N-{(1S,2R)-2-Hydroxy-3-[1-(3-isopropyl-phenyl)-cyclopropylamino]-1-[4-(6-phenyl-pyrimidin-4-ylamino)-benzyl]-propyl}-acetamide]", "values": [{"measurement": "IC50", "value": 23, "unit": "µM"}]}]}
